Measured values reported in the supplement of paper PMC12463676, “Small-molecule dissolution of stress granules by redox modulation benefits ALS models” (Nature Chemical Biology, 2025).

These targets were tested with NC(=O)CCCCC1CCSS1 [lipoamide] (assay: thermal stability z-score vs DMSO; higher = more thermally stabilized by treatment). Settings: HeLa; lipoamide concentration 100 µM; arsenate co-treatment: 1 mM arsenate 1 h.
Method: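 Cellular thermal proteome profiling in HeLa cells. Cells were treated with 100 µM lipoamide for 1 h, with or without 1 mM arsenate for a further 1 h, then heated to ten temperatures (37-66.3 °C), and soluble protein was quantified by TMT mass spectrometry relative to 0.1% DMSO controls. The thermal stability score (sum of log2 fold changes minus the abundance score) was transformed to a z-score; mean of n = 3 experiments.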
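Note: each temperature applied for 3 min, abundance score taken as mean log2 fold change at the two lowest temperatures, z-score obtained by mean subtraction and division by SD.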

Chain of UniProt Q9BTE3 (Q9BTE3 whole entry): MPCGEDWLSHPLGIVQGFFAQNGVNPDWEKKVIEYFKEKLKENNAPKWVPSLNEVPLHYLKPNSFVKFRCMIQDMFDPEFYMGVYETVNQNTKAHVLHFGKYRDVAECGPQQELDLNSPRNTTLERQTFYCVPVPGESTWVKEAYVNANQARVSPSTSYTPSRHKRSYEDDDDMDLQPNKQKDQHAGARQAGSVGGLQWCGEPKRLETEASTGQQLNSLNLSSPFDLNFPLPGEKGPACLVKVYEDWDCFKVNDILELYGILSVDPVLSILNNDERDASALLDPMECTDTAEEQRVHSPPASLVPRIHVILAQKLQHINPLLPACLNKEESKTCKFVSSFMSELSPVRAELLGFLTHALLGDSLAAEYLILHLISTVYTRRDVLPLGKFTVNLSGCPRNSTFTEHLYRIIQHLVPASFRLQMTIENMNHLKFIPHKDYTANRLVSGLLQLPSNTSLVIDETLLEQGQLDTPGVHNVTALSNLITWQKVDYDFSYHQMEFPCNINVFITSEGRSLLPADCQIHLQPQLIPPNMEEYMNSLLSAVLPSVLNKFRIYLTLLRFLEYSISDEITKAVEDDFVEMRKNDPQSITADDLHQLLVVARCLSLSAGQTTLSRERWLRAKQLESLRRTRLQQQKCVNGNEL
Chain of UniProt Q92925 (Q92925 whole entry): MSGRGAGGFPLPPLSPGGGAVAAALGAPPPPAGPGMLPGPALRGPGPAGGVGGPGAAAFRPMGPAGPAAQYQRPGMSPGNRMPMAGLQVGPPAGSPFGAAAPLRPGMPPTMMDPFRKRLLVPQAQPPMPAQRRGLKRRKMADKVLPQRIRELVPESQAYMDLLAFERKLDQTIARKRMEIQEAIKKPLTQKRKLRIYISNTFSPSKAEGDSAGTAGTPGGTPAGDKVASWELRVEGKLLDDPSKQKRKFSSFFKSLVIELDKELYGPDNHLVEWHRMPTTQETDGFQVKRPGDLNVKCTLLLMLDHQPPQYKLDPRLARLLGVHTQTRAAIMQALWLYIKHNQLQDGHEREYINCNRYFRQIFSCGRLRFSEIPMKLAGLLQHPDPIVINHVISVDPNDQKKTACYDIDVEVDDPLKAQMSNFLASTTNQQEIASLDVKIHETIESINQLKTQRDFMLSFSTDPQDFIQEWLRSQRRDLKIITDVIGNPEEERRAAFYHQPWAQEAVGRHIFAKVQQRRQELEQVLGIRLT
Chain of UniProt Q96SQ9 (Q96SQ9 whole entry): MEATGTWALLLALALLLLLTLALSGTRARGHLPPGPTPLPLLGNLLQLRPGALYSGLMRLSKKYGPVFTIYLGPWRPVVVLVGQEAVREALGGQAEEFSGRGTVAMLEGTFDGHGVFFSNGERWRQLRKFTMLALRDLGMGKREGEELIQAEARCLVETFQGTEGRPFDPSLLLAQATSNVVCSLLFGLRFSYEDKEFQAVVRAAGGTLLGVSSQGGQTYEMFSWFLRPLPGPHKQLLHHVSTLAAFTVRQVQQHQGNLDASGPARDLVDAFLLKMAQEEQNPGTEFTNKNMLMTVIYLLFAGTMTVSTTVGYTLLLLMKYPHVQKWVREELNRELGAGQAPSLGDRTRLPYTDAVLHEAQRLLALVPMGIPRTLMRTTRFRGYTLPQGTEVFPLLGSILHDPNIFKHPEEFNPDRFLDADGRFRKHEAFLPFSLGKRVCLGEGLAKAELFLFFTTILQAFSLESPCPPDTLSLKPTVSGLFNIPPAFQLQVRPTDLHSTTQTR
Chain of UniProt P37268 (P37268 whole entry): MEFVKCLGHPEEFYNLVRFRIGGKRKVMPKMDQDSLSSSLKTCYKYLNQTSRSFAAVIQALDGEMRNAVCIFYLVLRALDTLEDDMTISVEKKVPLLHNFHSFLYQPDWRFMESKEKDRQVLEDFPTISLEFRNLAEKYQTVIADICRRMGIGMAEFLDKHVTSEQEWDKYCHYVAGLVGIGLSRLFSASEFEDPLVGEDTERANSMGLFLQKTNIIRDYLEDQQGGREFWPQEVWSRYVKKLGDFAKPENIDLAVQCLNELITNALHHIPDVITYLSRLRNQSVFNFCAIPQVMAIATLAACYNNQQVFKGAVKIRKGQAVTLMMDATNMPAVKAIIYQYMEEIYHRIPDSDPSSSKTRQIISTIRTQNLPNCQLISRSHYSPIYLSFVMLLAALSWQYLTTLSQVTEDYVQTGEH
Chain of UniProt Q6P4A7 (Q6P4A7 whole entry): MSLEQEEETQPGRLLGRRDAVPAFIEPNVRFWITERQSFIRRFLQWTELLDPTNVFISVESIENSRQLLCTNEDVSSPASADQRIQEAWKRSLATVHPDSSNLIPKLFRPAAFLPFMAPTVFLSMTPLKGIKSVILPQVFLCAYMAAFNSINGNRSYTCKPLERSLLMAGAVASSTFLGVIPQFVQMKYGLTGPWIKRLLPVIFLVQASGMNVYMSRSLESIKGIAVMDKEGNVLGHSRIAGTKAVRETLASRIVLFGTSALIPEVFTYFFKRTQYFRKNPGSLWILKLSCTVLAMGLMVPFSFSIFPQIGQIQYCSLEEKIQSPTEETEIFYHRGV
Chain of UniProt O95834 (O95834 whole entry): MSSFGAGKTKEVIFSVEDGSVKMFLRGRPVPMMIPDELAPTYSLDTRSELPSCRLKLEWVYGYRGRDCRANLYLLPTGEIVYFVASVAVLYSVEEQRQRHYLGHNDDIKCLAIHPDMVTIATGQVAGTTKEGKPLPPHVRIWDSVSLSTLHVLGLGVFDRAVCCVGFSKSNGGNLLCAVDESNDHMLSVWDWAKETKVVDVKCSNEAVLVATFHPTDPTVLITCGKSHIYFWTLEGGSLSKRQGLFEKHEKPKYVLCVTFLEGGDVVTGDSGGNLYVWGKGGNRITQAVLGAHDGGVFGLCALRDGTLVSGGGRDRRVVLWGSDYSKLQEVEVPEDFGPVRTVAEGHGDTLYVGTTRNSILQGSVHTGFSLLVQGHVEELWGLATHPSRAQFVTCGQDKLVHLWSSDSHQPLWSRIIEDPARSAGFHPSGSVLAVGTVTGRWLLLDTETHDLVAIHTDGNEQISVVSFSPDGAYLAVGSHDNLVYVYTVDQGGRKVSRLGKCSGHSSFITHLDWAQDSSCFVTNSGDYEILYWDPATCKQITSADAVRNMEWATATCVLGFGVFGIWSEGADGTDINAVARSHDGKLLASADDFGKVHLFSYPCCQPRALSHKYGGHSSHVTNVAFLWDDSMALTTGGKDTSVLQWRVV
Chain of UniProt P53634 (P53634 whole entry, looked up): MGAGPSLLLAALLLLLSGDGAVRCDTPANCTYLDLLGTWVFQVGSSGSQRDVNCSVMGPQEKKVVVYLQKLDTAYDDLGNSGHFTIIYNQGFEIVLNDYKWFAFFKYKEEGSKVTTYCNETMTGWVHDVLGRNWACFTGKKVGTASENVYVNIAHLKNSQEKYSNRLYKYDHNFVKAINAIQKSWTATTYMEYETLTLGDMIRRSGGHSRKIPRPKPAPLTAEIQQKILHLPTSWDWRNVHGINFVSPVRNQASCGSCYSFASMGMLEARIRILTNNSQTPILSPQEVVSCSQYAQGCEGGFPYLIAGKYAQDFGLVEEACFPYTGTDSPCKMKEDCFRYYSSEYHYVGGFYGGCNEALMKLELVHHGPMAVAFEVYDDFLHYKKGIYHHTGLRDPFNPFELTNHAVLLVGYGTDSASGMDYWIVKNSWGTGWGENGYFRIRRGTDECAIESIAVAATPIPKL
Chain of UniProt O00165 (O00165 whole entry): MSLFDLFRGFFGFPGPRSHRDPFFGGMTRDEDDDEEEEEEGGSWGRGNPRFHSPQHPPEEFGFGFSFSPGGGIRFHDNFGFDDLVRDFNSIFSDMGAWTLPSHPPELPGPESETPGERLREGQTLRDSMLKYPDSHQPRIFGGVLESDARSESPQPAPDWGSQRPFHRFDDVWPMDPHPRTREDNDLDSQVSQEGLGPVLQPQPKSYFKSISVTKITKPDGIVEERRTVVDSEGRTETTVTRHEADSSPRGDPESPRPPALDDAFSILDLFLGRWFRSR
Chain of UniProt Q9C0B5 (Q9C0B5 whole entry): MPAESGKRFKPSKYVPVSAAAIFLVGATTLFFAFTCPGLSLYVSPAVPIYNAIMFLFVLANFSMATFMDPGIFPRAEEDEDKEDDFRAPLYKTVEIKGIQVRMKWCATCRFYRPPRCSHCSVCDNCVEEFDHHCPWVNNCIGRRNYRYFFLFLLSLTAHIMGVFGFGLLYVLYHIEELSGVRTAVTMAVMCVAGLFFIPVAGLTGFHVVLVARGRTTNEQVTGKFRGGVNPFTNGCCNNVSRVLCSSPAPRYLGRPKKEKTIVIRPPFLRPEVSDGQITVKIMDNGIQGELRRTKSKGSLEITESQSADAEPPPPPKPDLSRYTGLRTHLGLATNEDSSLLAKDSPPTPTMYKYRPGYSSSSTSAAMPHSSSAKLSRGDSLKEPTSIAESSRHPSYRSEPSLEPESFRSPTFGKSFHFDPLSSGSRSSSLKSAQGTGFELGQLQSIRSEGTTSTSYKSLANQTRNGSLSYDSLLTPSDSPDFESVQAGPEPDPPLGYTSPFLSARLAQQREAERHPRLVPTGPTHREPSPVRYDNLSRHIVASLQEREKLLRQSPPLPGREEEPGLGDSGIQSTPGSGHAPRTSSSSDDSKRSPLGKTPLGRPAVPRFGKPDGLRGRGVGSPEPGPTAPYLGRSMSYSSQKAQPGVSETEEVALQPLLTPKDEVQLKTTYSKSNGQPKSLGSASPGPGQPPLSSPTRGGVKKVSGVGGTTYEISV
Chain of UniProt Q02818 (Q02818 whole entry): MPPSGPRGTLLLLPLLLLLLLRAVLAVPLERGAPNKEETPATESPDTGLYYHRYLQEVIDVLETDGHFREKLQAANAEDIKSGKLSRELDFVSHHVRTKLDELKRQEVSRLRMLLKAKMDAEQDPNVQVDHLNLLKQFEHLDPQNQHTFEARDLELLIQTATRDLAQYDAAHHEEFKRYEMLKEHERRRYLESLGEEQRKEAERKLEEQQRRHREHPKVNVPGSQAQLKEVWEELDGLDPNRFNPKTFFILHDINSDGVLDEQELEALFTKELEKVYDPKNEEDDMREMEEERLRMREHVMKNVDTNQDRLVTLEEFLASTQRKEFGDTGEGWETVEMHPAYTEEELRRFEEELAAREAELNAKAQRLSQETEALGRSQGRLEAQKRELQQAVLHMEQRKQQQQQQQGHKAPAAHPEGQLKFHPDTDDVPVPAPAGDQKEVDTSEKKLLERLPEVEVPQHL

| Target | thermal stability z-score |
| --- | --- |
| HAX1 (UniProt O00165) | -1 |
| CYP2S1 (UniProt Q96SQ9) | -1.14 |
| MCMBP (UniProt Q9BTE3) | -0.129 |
| EML2 (UniProt O95834) | 1.13 |
| SRM (UniProt P19623) | -0.392 |
| SMARCD2 (UniProt Q92925) | 0.132 |
| ACOT9 (UniProt Q9Y305) | 0.00609 |
| LPCAT4 (UniProt Q643R3) | -0.953 |
| FXR1 (UniProt P51114) | 0.487 |
| GINS3 (UniProt Q9BRX5) | 0.275 |
| ARAF (UniProt P10398) | -0.299 |
| DPF2 (UniProt Q92785) | 2.86 |
| CCT6A (UniProt P40227) | 0.06 |
| FANCI (UniProt Q9NVI1) | -0.722 |
| GAMT (UniProt Q14353) | -0.374 |
| AAGAB (UniProt Q6PD74) | 0.334 |
| KAT8 (UniProt Q9H7Z6) | 0.773 |
| CTSC (UniProt P53634) | -0.492 |
| TKT (UniProt P29401) | 0.488 |
| EXT2 (UniProt Q93063) | -1.16 |
| SFXN4 (UniProt Q6P4A7) | -1.11 |
| PYM1 (UniProt Q9BRP8) | 0.618 |
| HYI (UniProt Q5T013) | 1.85 |
| ACBD6 (UniProt Q9BR61) | -1.02 |

| Target | thermal stability z-score |
| --- | --- |
| ZC3H8 (UniProt Q8N5P1) | -0.0194 |
| ASNS (UniProt P08243) | 1.69 |
| ABCB10 (UniProt Q9NRK6) | 0.329 |
| NUCB1 (UniProt Q02818) | -0.169 |
| MRPS31 (UniProt Q92665) | -0.961 |
| ZDHHC5 (UniProt Q9C0B5) | -0.762 |
| PCNT (UniProt O95613) | -0.505 |
| AIP (UniProt O00170) | -0.0398 |
| RBM19 (UniProt Q9Y4C8) | 0.0627 |
| MAPK7 (UniProt Q13164) | 0.0307 |
| DYNLL1 (UniProt P63167) | -0.627 |
| FDFT1 (UniProt P37268) | -0.0123 |
| CWF19L1 (UniProt Q69YN2) | -0.381 |
| COPS8 (UniProt Q99627) | 0.0678 |
| SELO (UniProt Q9BVL4) | -0.214 |
| DNAAF2 (UniProt Q9NVR5) | -0.15 |
| NDUFA2 (UniProt O43678) | -0.29 |
| VPS28 (UniProt Q9UK41) | 0.513 |
| CDC40 (UniProt O60508) | -0.117 |
| UQCRB (UniProt P14927) | 0.896 |
| TRIM29 (UniProt Q14134) | -0.0886 |
| STX18 (UniProt Q9P2W9) | 0.00945 |
| DHFR (UniProt P00374) | -0.995 |
| PGLS (UniProt O95336) | 0.924 |

| Target | thermal stability z-score |
| --- | --- |
| MCTP2 (UniProt Q6DN12) | -0.192 |
| CDKN2A | 0.99 |
| CEP290 (UniProt O15078) | 0.613 |
| AP2S1 (UniProt P53680) | -0.111 |
| ISG15 (UniProt P05161) | 0.471 |
| FOXK2 (UniProt Q01167) | 0.0506 |
| TRAF3IP2 (UniProt O43734) | -0.106 |
| SLC39A7 (UniProt Q92504) | -1.65 |
| CRLF3 (UniProt Q8IUI8) | -0.236 |
| CHCHD2 (UniProt Q9Y6H1) | 1.56 |
| CDK8 (UniProt P49336) | -0.0332 |
| CHERP (UniProt Q8IWX8) | 0.00336 |
| TMEM214 (UniProt Q6NUQ4) | -0.283 |
| PPP1R12A (UniProt O14974) | 1.32 |
| RPS11 (UniProt P62280) | 0.621 |
| RNF121 (UniProt Q9H920) | -1 |
| MRPL55 (UniProt Q7Z7F7) | 0.0563 |
| AES (UniProt Q08117) | 0.656 |
| SAFB (UniProt Q15424) | 2.61 |
| IFI30 (UniProt P13284) | 1.71 |
| FUNDC2 (UniProt Q9BWH2) | 0.0791 |
| TSPAN4 (UniProt O14817) | -0.0469 |
| CPPED1 (UniProt Q9BRF8) | -0.0195 |
| AGAP1 (UniProt Q9UPQ3) | -1.59 |

Same assay, conditions: HeLa; lipoamide concentration 100 µM; arsenate co-treatment: none

| Target | thermal stability z-score |
| --- | --- |
| HAX1 (UniProt O00165) | -0.895 |
| CYP2S1 (UniProt Q96SQ9) | -0.765 |
| MCMBP (UniProt Q9BTE3) | -0.0734 |
| EML2 (UniProt O95834) | 0.223 |
| SRM (UniProt P19623) | -0.0266 |
| SMARCD2 (UniProt Q92925) | 0.101 |
| ACOT9 (UniProt Q9Y305) | 0.283 |
| LPCAT4 (UniProt Q643R3) | 0.367 |
| FXR1 (UniProt P51114) | 0.714 |
| GINS3 (UniProt Q9BRX5) | -0.19 |
| ARAF (UniProt P10398) | -0.252 |
| DPF2 (UniProt Q92785) | 2.98 |
| CCT6A (UniProt P40227) | -0.18 |
| FANCI (UniProt Q9NVI1) | -0.439 |
| GAMT (UniProt Q14353) | 0.506 |
| AAGAB (UniProt Q6PD74) | 0.843 |
| KAT8 (UniProt Q9H7Z6) | -0.409 |
| CTSC (UniProt P53634) | -0.279 |

| Target | thermal stability z-score |
| --- | --- |
| TKT (UniProt P29401) | 0.386 |
| EXT2 (UniProt Q93063) | -0.953 |
| SFXN4 (UniProt Q6P4A7) | -0.872 |
| PYM1 (UniProt Q9BRP8) | -0.287 |
| HYI (UniProt Q5T013) | 0.651 |
| ACBD6 (UniProt Q9BR61) | -0.756 |
| ZC3H8 (UniProt Q8N5P1) | -0.277 |
| ASNS (UniProt P08243) | 0.131 |
| ABCB10 (UniProt Q9NRK6) | 0.173 |
| NUCB1 (UniProt Q02818) | -0.102 |
| MRPS31 (UniProt Q92665) | 0.411 |
| ZDHHC5 (UniProt Q9C0B5) | 0.0706 |
| PCNT (UniProt O95613) | 0.496 |
| AIP (UniProt O00170) | -0.833 |
| RBM19 (UniProt Q9Y4C8) | 0.309 |
| MAPK7 (UniProt Q13164) | 0.141 |
| DYNLL1 (UniProt P63167) | -0.0429 |
| FDFT1 (UniProt P37268) | 0.444 |
